Test system: BJeLR
Assay: Modulatory profiling: Alamar Blue viability, lethal compound cotreated with death modulator (EC50, AUC); for AUC, modulator BJ.3MA: reference of the scale not given here; for AUC, modulator BJ.ALLN: reference of the scale not given here; for AUC, modulator BJ.Boc D: reference of the scale not given here; for AUC, modulator BJ.CHX: reference of the scale not given here; for AUC, modulator BJ.Co2+: reference of the scale not given here; for AUC, modulator BJ.DPQ: reference of the scale not given here; for AUC, modulator BJ.Gd3+: reference of the scale not given here; for AUC, modulator BJ.LNAME: reference of the scale not given here; for AUC, modulator BJ.NAD+: reference of the scale not given here; for AUC, modulator BJ.NMMA: reference of the scale not given here; for AUC, modulator BJ.Nec-1: reference of the scale not given here; for AUC, modulator BJ.Pepstatin: reference of the scale not given here; for AUC, modulator BJ.TLCK: reference of the scale not given here
Format: cell-based, human
Design: AUC, modulator BJ.Gd3+ / AUC, modulator BJ.LNAME / AUC, modulator BJ.Lmin / AUC, modulator BJ.3MA / AUC, modulator BJ.ALLN / AUC, modulator BJ.Boc D / AUC, modulator BJ.CHX / AUC, modulator BJ.Co2+ / AUC, modulator BJ.Nec-1 / AUC, modulator BJ.Pepstatin / AUC, modulator BJ.TLCK / AUC, modulator BJ.atoc / AUC, modulator BJ.trolox / AUC, modulator BJ.zVAD: unit not given beside the values
Details: BJeLR cells, modulatory profile value (AUC); for AUC, modulator BJ.3MA: lethal compound cotreated with modulator 3MA; for AUC, modulator BJ.ALLN: lethal compound cotreated with modulator ALLN; for AUC, modulator BJ.Boc D: lethal compound cotreated with modulator Boc D; for AUC, modulator BJ.CHX: lethal compound cotreated with modulator CHX; for AUC, modulator BJ.Co2+: lethal compound cotreated with modulator Co2+; for AUC, modulator BJ.DPQ: lethal compound cotreated with modulator DPQ; for AUC, modulator BJ.Gd3+: lethal compound cotreated with modulator Gd3+; for AUC, modulator BJ.LNAME: lethal compound cotreated with modulator LNAME; for AUC, modulator BJ.Lmin/NAD+: lethal compound cotreated with modulator Lmin/NAD+; for AUC, modulator BJ.Lmin: lethal compound cotreated with modulator Lmin; for AUC, modulator BJ.NAD+: lethal compound cotreated with modulator NAD+; for AUC, modulator BJ.NMMA: lethal compound cotreated with modulator NMMA; for AUC, modulator BJ.Nec-1: lethal compound cotreated with modulator Nec-1; for AUC, modulator BJ.Pepstatin: lethal compound cotreated with modulator Pepstatin; for AUC, modulator BJ.TLCK: lethal compound cotreated with modulator TLCK; for AUC, modulator BJ.atoc: lethal compound cotreated with modulator atoc; for AUC, modulator BJ.trolox: lethal compound cotreated with modulator trolox; for AUC, modulator BJ.zVAD: lethal compound cotreated with modulator zVAD

SMILES | AUC, modulator BJ.3MA | AUC, modulator BJ.ALLN | AUC, modulator BJ.Boc D | AUC, modulator BJ.CHX | AUC, modulator BJ.Co2+ | AUC, modulator BJ.DPQ | AUC, modulator BJ.Gd3+ | AUC, modulator BJ.LNAME | AUC, modulator BJ.Lmin/NAD+ | AUC, modulator BJ.Lmin | AUC, modulator BJ.NAD+ | AUC, modulator BJ.NMMA | AUC, modulator BJ.Nec-1 | AUC, modulator BJ.Pepstatin | AUC, modulator BJ.TLCK | AUC, modulator BJ.atoc | AUC, modulator BJ.trolox | AUC, modulator BJ.zVAD
CC(C)C[C@H](NC(=O)[C@H](Cc1ccccc1)NC(=O)c1cnccn1)B(O)O [Bortezomib] | 0.001928 | −0.1031 | 0.03032 | 0.2984 | 0.2379 | −0.007392 | −0.03227 | −0.008649 | 0.1491 | 0.09993 | 0.05175 | −0.0002968 | 0.002293 | 0.000698 | 0.07108 | 0.01647 | 0.01237 | 0.005086
COc1ccccc1/C=C/C1(C(=O)NC2CCCC2)CC(=O)N1c1ccc(F)cc1 (stereo not drawn) [CIL1] | 0.0947 | −0.03319 | −0.0465 | −0.08681 | 0.09572 | −0.01655 | −0.001577 | −0.02103 | −0.01947 | −0.0142 | 0.03941 | −0.02498 | 0.0816 | 0.07639 | 0.01375 | 0.05385 | 0.08302 | −0.04705
CC1=CC(C)(C)Nc2ccc(OC(=O)c3ccco3)cc21 [CIL2] | 0.06431 | −0.03978 | −0.03808 | 0.03999 | −0.1362 | 0.003929 | 0.01322 | −0.004423 | −0.01944 | 0.008318 | 0.03383 | −0.005234 | 0.0318 | 0.05923 | 0.06974 | −0.01149 | 0.001657 | −0.003959
CC1CC(C)(C)Nc2ccc(OC(=O)c3ccco3)cc21 (stereo not drawn) [CIL4] | 0.08316 | −0.003083 | −0.01828 | −0.009993 | −0.1747 | −0.003969 | 0.05533 | −0.01288 | 0.08674 | −0.002867 | 0.02731 | −0.01566 | 0.1015 | 0.08231 | 0.06929 | 0.004307 | 0.008406 | 0.01242
OCCNCC(O)Cn1c2ccc(Br)cc2c2cc(Br)ccc21 (stereo not drawn) [CIL7] | 0.09188 | −0.02876 | −0.04946 | −0.01056 | 0.09999 | 0.06721 | −0.01897 | −0.03182 | 0.01771 | 0.01256 | 0.009046 | −0.01533 | 0.02534 | 0.06231 | −0.02373 | 0.0008495 | 0.0424 | −0.05834
COc1ccc(Nc2ccc3c(c2)=NC2(CCCCC2)[N+]=3[O-])cc1 [CIL9] | 0.0465 | −0.1202 | −0.06171 | 0.03696 | −0.009162 | −0.01225 | −0.01038 | 0.01336 | 0.01499 | −0.03967 | 0.0007181 | −0.01541 | 0.02689 | 0.0182 | −0.01752 | 0.02754 | 0.05397 | −0.02708
CC(C)(C)C1CCc2c(sc(NC(=O)CN3CCNCC3)c2C(N)=O)C1 (stereo not drawn) [CIL10] | 0.134 | −0.01713 | −0.05212 | −0.01805 | 0.1142 | −0.02695 | 0.007922 | 0.01363 | −0.01396 | −0.02341 | −0.001182 | 0.006192 | 0.07272 | 0.001044 | −0.05831 | 0.0467 | 0.05527 | −0.007333
Cc1cccnc1Nc1nc(-c2ccccn2)cs1 [CIL13] | 0.09083 | −0.03933 | −0.02989 | −0.1264 | 0.5287 | 0.007392 | 0.04263 | 0.01544 | −0.05456 | −0.03412 | 0.01378 | −0.03177 | 0.04738 | 0.03784 | 0.3412 | −0.005646 | −0.006649 | −0.004568
COc1cccc(-n2nnnc2S(C)(=O)=O)c1 [CIL16] | 0.05064 | −0.03491 | −0.04692 | 0.01221 | 0.07207 | −0.01732 | −0.02506 | −0.01278 | −0.05229 | −0.02238 | −0.02177 | −0.01938 | 0.06903 | 0.02481 | −0.02516 | −0.03351 | 0.003689 | −0.006166
C[S+]([O-])c1nc(-c2ccc(Br)cc2)cc(-c2ccccc2)c1C#N (stereo not drawn) [CIL17] | 0.07927 | −0.07478 | −0.03116 | −0.0462 | −0.04764 | 0.004679 | −0.04 | −0.008054 | −0.03209 | −0.02464 | −0.01632 | −0.01688 | 0.02959 | 0.03912 | −0.07864 | 0.006451 | −0.001174 | −0.02313
CCCCNc1cc(C)nc(NCc2ccccc2)n1 [CIL18] | 0.0654 | −0.04507 | −0.01841 | −0.01582 | 0.08943 | −0.01318 | −0.01659 | −0.01628 | −0.0502 | −0.05505 | 0.00749 | −0.02371 | 0.0226 | 0.04724 | −0.03824 | −0.0004228 | 0.0395 | −0.005402
O=c1c(N2CCCC2)c(Cl)cnn1-c1ccccc1 [CIL20] | 0.055 | −0.09098 | −0.06373 | −0.009677 | 0.04763 | −0.02696 | 0.04266 | −0.001747 | −0.03734 | −0.02603 | 0.03043 | −0.01046 | 0.0115 | −0.002516 | −0.00743 | −0.005113 | 0.02308 | −0.04036
Cc1cccc(-n2ncc(Cl)c(Cl)c2=O)c1 [CIL22] | −0.04329 | −0.03232 | −0.0406 | 0.1136 | 0.07615 | 0.005752 | 0.005899 | 0.0123 | 0.07278 | 0.002645 | −0.005902 | −0.007412 | −0.01633 | 0.02724 | −0.01321 | 0.01015 | 0.0184 | 0.03093
COc1nn(-c2ccccc2)c(=O)c(Cl)c1Cl [CIL23] | −0.01613 | −0.04561 | −0.01959 | −0.02303 | −0.01594 | 0.004379 | 0.03265 | −0.02129 | 0.004125 | −0.01617 | 0.005104 | −0.01242 | 0.03269 | −0.001663 | −0.007806 | 0.002315 | −0.02152 | 0.04691

Source: patent US10947188B2, “Small molecule ferroptosis inducers” (THE TRUSTEES OF COLUMBIA UNIVERSITY IN THE CITY OF NEW YORK, priority 2016, dated 2021)
